# Data published in patent publication US9174993B2, “N-[4-(1H-pyrazolo[3,4-b]pyrazin-6-yl)-phenyl]-sulfonamides and their use as pharmaceuticals” (SANOFI, priority 2011, dated 2015).
# Key:
# [1] = tested on: SGK-1 dependent activation of ENaC-currents in A6 cell monolayers; experiment: Functional electrophysiological assay, SGK-1 dependent activation of ENaC currents in A6 cell monolayers (Ussing chamber); assay type: cell-based; conditions: Xenopus laevis, 0.75 h, hypoosmotic shock 45 min, read-out: IC50 for inhibition of ΔI'sc (amiloride-sensitive ENaC-dependent short circuit current)
# Procedure: Materials and methods for Ussing chamber measurement of A6 cells: The renal Xenopus laevis cell line A6 (Rafferty, K. A.; Mass culture of amphibia cells: methods and observations concerning stability of cell type. In: Biology of Amphibian Tumors, edited by M. Mizell. New York: Springer-Verlag, 1969, p. 52-81) was used for the experiments. Cells were grown in cell culture flasks (Nunc) at 28° C. in a humidified atmosphere with 4% CO2. The culture medium contained a 7:3 mixture of Leibovitz's L-15 (Sigma-Aldrich)/Coon's (Sigma-Aldrich) media supplemented with 10% fetal bovine serum (PAA), 20% sterile water, 25 mM NaHCO3 (Sigma-Aldrich), 100 U/ml penicillin (PAA) and 100 μg/ml streptomycin (PAA). The osmolality of the medium was 270 mOsml/kg H2O). […] Filters with confluent A6 cells were transferred into a continuously perfused Ussing-chamber, and electrophysiological parameters were measured under open circuit conditions using a transepithelial clamp amplifier (EP Design). Short circuit current (I′sc) was calculated by Ohm's law. […]
# To evaluate the effects of SGK inhibitors on ENaC-mediated transepithelial currents, […] monolayers were first equilibrated for 5 min with isoosmotic Ringer-solution from both the luminal and basolateral side of the cell layer. […] ENaC-dependent I′sc after the hypoosmotic shock (I′schypo) was determined by application of amiloride at the end of the experiment. […]
# [2] = tested on: collagen type X (Col10a1) expression in ATDC5 cells; experiment: Chondrocyte hypertrophic differentiation in mouse chondrogenic ATDC5 cells (collagen type X expression); assay type: cell-based; conditions: 336 h, 14 days differentiation with BMP2 and T3, Col10a1 by quantitative real-time PCR, read-out: IC50 for the inhibition of collagen type X expression
# Description: The ATDC5 cell assay was used as in vitro model to determine the effects of the compounds of the invention on chondrocyte hypertrophic differentiation by monitoring the expression levels of collagen type X (Col10a1) as specific marker of chondrocyte hypertrophy.
# Background: ATDC5 cells are a clonal mouse embryonic cell line derived from multipotent AT805 teratocarcinoma cells (Atsumi T, Miwa Y, Kimata K, Ikawa Y.; A chondrogenic cell line derived from a differentiating culture of AT805 teratocarcinoma cells. Cell Differ. Dev. 30 (1990), 109-116). […] Chondrogenic differentiation can be shown by measuring the expression of the cartilage main collagen (Col2a1) and aggrecan (AGC1) and glycosaminoglycan-staining with Alcian Blue within two weeks after insulin-triggered differentiation, and hypertrophic differentiation can be monitored by the expression of collagen type X (Col10a1), a specific marker of chondrocyte hypertrophy within 21 days of in vitro culture. […] SGK-inhibitors were added to differentiating ATDC5 cells for 14 days and Col10a1 gene expression was quantified to determine effects on chondrocyte hypertrophic differentiation. […]
# After two weeks of cell culture, RNA was isolated and converted to cDNA for determination of gene expression by quantitative real-time PCR. […] RNA was isolated in 30 μl of pure water and the RNA content measured by UV-spectroscopy (Nanodrop, Peqlab). […]
# [3] = target: recombinant human SGK-1 enzyme (Homo sapiens, UniProt O00141); experiment: SGK-1 enzymatic activity assay (substrate phosphorylation, fluorescein-labeled peptide, lab-chip); assay type: biochemical; conditions: ATP 10 μM, peptide substrate 1 μM, 60 min at 37° C., read-out: IC50 for inhibition of SGK-1 enzymatic activity
# Sequence of recombinant human SGK-1 enzyme (O00141 whole entry, looked up): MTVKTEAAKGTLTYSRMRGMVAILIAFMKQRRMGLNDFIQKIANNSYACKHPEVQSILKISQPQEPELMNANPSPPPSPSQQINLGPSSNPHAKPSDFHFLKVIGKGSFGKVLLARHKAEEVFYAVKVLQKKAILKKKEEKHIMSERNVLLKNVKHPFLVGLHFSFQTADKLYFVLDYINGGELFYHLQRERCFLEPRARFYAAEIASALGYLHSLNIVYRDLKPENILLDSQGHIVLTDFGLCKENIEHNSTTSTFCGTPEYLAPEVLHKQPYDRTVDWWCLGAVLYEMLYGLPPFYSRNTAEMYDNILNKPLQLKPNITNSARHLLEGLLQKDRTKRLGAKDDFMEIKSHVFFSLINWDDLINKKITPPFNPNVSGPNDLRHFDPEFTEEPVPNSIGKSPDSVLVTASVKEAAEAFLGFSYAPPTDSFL
# Description: The synthesized fluorescent labeled peptide substrate contained (5(6)-Carboxyfluorescein)-RPRAATF-NH2. The phosphorylated substrate peptide and non-phosphorylated substrate peptide were separated with caliper life science's lab-chip technology based on a micro fluidics method. All fluid flow was established on the chip by applying a vacuum of a few psi to the waste well transporting fluid from various sources through interconnecting channels. Because the phosphoryl group is doubly negatively charged, under the pressure-driven hydrodynamic flow and the voltage-driven flow within the electric field, the fluorescent labeled peptide substrate and its phosphorylation product appear at different times in the detection window to the detection point. Substrate turnover can thus be determined as the ratio of the product peak area and the sum of substrate peak area and product peak area.
# The enzyme reaction was carried out in a buffer containing 25 mM Tris-HCl (pH 7.4), 5 mM MgCl2, 2 mM MnCl2, 2 mM DTT, and 0.03% bovine serum albumine. The enzyme was pre-incubated with the test compound for 30 min at 24° C. The kinase reaction was initiated by addition of the substrate mixture containing the peptide substrate (final concentration 1 μM) and ATP (final concentration 10 μM). After 60 min incubation at 37° C., the enzyme reaction was terminated by adding a buffer containing 100 mM Hepes (pH 7.4) and 35 mM EDTA.
# For the determination of the compound dose response, a 10 mM DMSO stock solution was diluted and tested in a ten-point, three-fold dilution series run in duplicate beginning at 30 μM final concentration. Data were analyzed using a four-parameter curve fit with a fixed minimum and maximum experimentally defined as the average positive and negative controls on each plate.
Compound,IC50 [3],also measured
"Nc1n[nH]c2nc(-c3ccc(NS(=O)(=O)c4cccc(Cl)c4Cl)cc3)cnc12 [Example 1, N-[4-(3-Amino-1H-pyrazolo[3,4-b]pyrazin-6-yl)phenyl]-2,3-dichloro-benzenesulfonamide]",–,IC50 [1]: 2.1 µM
"Nc1n[nH]c2nc(-c3ccc(NS(=O)(=O)c4cc(Cl)ccc4F)c(F)c3)cnc12 [Example 6, N-[4-(3-Amino-1H-pyrazolo[3,4-b]pyrazin-6-yl)-2-fluoro-phenyl]-5-chloro-2-fluoro-benzenesulfonamide]",–,IC50 [2]: 0.559 µM
"O=S(=O)(Nc1ccc(-c2cnc3c(NS(=O)(=O)c4cc(Cl)c(F)cc4F)n[nH]c3n2)cc1)c1cc(Cl)c(F)cc1F [Example 42, 5-Chloro-N-[4-[3-[(5-chloro-2,4-difluoro-phenyl)sulfonylamino]-1H-pyrazolo[3,4-b]pyrazin-6-yl]phenyl]-2,4-difluoro-benzenesulfonamide]",0.413 µM,–
"Cc1nn(C)c(Cl)c1S(=O)(=O)Nc1ccc(-c2cnc3c(NS(=O)(=O)c4c(C)nn(C)c4Cl)n[nH]c3n2)cc1 [Example 43, 5-Chloro-N-[4-[3-[(5-chloro-1,3-dimethyl-pyrazol-4-yl)sulfonylamino]-1H-pyrazolo[3,4-b]pyrazin-6-yl]phenyl]-1,3-dimethyl-pyrazole-4-sulfonamide]",1.05 µM,–

# Second part, led by results:
IC50 [3],Compound,also measured
0.018 µM,"Nc1n[nH]c2nc(-c3ccc(NS(=O)(=O)c4ccc(F)cc4Cl)cc3)cnc12 [Example 61, N-[4-(3-Amino-1H-pyrazolo[3,4-b]pyrazin-6-yl)-phenyl]-2-chloro-4-fluoro-benzenesulfonamide]",–
0.031 µM,"Nc1n[nH]c2nc(-c3ccc(NS(=O)(=O)c4cc(F)cc(F)c4Cl)cc3)cnc12 [Example 60, N-[4-(3-Amino-1H-pyrazolo[3,4-b]pyrazin-6-yl)-phenyl]-2-chloro-3,5-difluoro-benzenesulfonamide]",–
0.047 µM,"N#Cc1ccc(F)c(S(=O)(=O)Nc2ccc(-c3cnc4c(N)n[nH]c4n3)cc2)c1 [Example 45, N-[4-(3-Amino-1H-pyrazolo[3,4-b]pyrazin-6-yl)-phenyl]-5-cyano-2-fluoro-benzenesulfonamide]",–
